Source: patent US20230372328A1, “ORAL DELAYED BURST FORMULATION OF LOW-DOSE NALTREXONE AND METHODS FOR TREATING FIBROMYALGIA AND LONG COVID” (Scilex Holding Company, priority 2020, published 2023)
Structures can show the parent of a compound that is named as a salt. Where two headings read alike, the source gives them in different places.

Legend:
[1] = cited from earlier work
[2] = Naltrexone HCl excipient compatibility (stressed stability) study, assay and impurities; type: physicochemical
Procedure: An excipient compatibility study was designed and conducted to screen excipients for the low dose naltrexone HCl delayed release capsules for formulation development purposes. Based on the formulation approach of a multi-particulate system filled in capsule dosage form, the drug layered spheres were coated with a functional pH dependent polymer film.
The physical mixtures were prepared by weighing individual material into glass crimp vials and mixing using a vortex. The open samples were left open and closed samples were tightly closed using a crimper.

[3] = cited from earlier work; remark: listed apart in the source
[4] = 40° C./ 75% RH - Closed - 2 weeks
[5] = 40° C./ 75% RH - Open - 2 weeks

For `C=CCN1CC[C@]23c4c5ccc(O)c4OC2C(=O)CC[C@@]3(O)[C@H]1C5` (stereo partly drawn) [Naloxone hydrochloride, 17-allyl-4,5 α-epoxy, 3-14-dihydroxymorphinan-6-one hydrochloride], the solubility ([1]; in alcohol) is listed as “slightly soluble”, the solubility ([1]; in ether and in chloroform) is listed as “practically insoluble” and the solubility ([1]; in water, in dilute acids, and in strong alkali) is listed as “soluble”.

In the case of `O=C1CC[C@@]2(O)[C@H]3Cc4ccc(O)c5c4[C@@]2(CCN3CC2CC2)[C@H]1O5` [Naltrexone Control], the “Assay (%)” value [2, 4] is reported as 99.3%, the “Impurities (%)” value [2, 4] is reported as 0.6% and the “Assay (%)” value [2, 5] is reported as 101.5%. For the same compound, the “Impurities (%)” value [2, 5] was 0.6%, the “Assay (%)” value ([2]; Initial) was 99.4% and the “Impurities (%)” value ([2]; Initial) was 0.4%.

For `C=CCN1CC[C@]23c4c5ccc(O)c4O[C@H]2C(=O)CC[C@@]3(O)[C@H]1C5` [naloxone], the half-life ([3]; in vivo) is given as 3 h and the oral bioavailability ([3]; oral) is given as roughly 3%.
